Measurements as given in patent US20250034216A1, “STEREOSELECTIVE COVALENT LIGANDS FOR ONCOGENIC AND IMMUNOLOGICAL PROTEINS” (The Scripps Research Institute, priority 2021, published 2025).

Experiments:
NAPIL1_C132 = biological target: T1, NAPIL1_C132 (Homo sapiens, UniProt P55209); experiment: IA-DTB cysteine engagement; assay type: binding; details: 22Rv1 cells, 20 μM probe, 1 h, relative to DMSO
T1 construct: endogenous in cells; host or cells: 22Rv1
T1 sequence (P55209 1-391): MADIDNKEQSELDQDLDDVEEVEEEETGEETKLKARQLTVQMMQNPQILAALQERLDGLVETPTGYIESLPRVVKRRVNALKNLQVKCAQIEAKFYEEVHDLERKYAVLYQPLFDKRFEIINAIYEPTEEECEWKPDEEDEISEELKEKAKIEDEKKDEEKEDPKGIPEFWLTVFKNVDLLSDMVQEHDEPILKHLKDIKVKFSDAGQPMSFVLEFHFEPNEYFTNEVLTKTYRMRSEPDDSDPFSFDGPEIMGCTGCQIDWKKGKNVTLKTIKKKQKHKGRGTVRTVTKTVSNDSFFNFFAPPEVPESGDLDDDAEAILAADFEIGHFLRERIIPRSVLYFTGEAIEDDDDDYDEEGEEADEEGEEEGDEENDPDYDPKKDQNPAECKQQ
Procedure, shortened: (§1)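 First, cells are exposed to electrophilic probes in situ. Next, lysates are labeled with IA-DTB (1 h, ambient temperature), reduced, alkylated and trypsin-digested. Then, IA-DTB peptides are enriched on streptavidin, TMT-labeled and analyzed, with ratios taken against DMSO channels.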

CKAP4_C100 = biological target: T2, CKAP4_C100 (Homo sapiens, UniProt Q07065); experiment: IA-DTB cysteine engagement; assay type: binding; details: 22Rv1 cells, 20 μM probe, 1 h, relative to DMSO
T2 construct: endogenous in cells; host or cells: 22Rv1
T2 sequence (Q07065 1-602): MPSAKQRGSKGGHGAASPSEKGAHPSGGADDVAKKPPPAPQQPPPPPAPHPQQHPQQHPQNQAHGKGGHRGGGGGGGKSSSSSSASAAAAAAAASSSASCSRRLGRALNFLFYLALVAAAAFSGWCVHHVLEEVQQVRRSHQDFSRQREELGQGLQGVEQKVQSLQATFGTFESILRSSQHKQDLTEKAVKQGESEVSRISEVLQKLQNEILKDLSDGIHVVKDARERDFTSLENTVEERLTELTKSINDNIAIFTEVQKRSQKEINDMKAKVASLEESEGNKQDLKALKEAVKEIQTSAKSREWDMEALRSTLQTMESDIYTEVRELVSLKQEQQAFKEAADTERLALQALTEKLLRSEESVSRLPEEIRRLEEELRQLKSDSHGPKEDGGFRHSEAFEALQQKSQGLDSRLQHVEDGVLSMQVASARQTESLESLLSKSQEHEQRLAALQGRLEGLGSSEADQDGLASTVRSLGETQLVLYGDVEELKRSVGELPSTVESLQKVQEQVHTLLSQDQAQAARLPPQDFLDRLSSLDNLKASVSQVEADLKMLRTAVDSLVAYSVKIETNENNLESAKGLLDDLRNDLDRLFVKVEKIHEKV
Procedure, shortened: as §1

| SMILES | % engagement NAPIL1_C132 (NAPIL1_C132) [%] | % engagement CKAP4_C100 (CKAP4_C100) [%] |
| --- | --- | --- |
| C=CC(=O)N1C[C@H](c2ccc(Br)cc2)[C@H]1C(=O)Nc1cccc2cccnc12 [MY-3A, (2S,3S)-1-acryloyl-3-(4-bromophenyl)-N-(quinolin-8-yl)azetidine-2-carboxamide] | 25 | 78.75 |
| C=CC(=O)N1C[C@@H](c2ccc(Br)cc2)[C@H]1C(=O)Nc1cccc2cccnc12 [MY-1A, (2S,3R)-1-acryloyl-3-(4-bromophenyl)-N-(quinolin-8-yl)azetidine-2-carboxamide] | −21.5 | 84 |
| C=CC(=O)N1C[C@H](c2ccc(Br)cc2)[C@@H]1C(=O)Nc1cccc2cccnc12 [MY-1B, (2R,3S)-1-acryloyl-3-(4-bromophenyl)-N-(quinolin-8-yl)azetidine-2-carboxamide] | 6 | 90.25 |
| C=CC(=O)N1C[C@H](c2ccc(Br)cc2)[C@H]1C(=O)Nc1cccc2cccnc12 [MY-3B, (2S,3S)-1-acryloyl-3-(4-bromophenyl)-N-(quinolin-8-yl)azetidine-2-carboxamide] | 80 | 93.75 |
